Results from patent US20260232682A1, “GSPT1 DEGRADER COMPOUNDS” (Captor Therapeutics S.A., priority 2023, published 2026).
pKi: −log10 of the molar value.

Columns and labels:
[1] = target: T1, [SALL4 ZF2]-[compound]-[CRBN/DDB1] ternary complex (Homo sapiens, UniProt Q96SW2+Q9UJQ4); test: AlphaLISA assay for off-target recruitment detection, SALL4 ZF2; type: binding; settings: 1 μM compound; normalized to Lenalidomide; read-out: Normalized ternary complex response, SALL4 ZF2
T1 construct: SALL4 ZF2
Protocol: (§1) The ability of the molecular glue compounds of the invention to mediate the proximity of CRBN with its known neo-substrates (shown in Table 3) was assessed using AlphaLISA to detect the formation of a [neo-substrate]-[compound of formula (I)]-[CRBN/DDB1] ternary complex.
(§2) Two types of protein solution were prepared: • neo-substrate, 40 μg/ml AlphaScreen Donor Beads (Table 3) in PBS (10 mM phosphate buffer, 137 mM NaCL, 2.7 mM KCl, pH 7.4) buffer supplemented with Tween-20 (Table 3) and 1 mM DTT, • 200 nM 6×His-CRBN/DDB1, 40 μg/ml AlphaLISA Anti-6×His Acceptor beads in PBS buffer with Tween-20 (Table 3) and 1 mM DTT.
(§3) The prepared solutions were incubated at room temperature for 30 min and then the solution containing the donor beads was mixed with the solution containing the acceptor beads.
(§4) The tested compounds were dispensed onto a white 384-well AlphaPlate 384 SW. DMSO was backfilled to all wells, resulting in a final DMSO content of 2%. Wells containing only DMSO served as background. Next, 10 μl of solution with donor and acceptor beads was added to the wells.
(§5) The plate was sealed with transparent film and shaken using a VibroTurbulator for 60 sec at room temperature, level 3. The plate was then spun down shortly (10 sec, 1000 rcf, room temperature) and incubated at 25° C. for 30 min.
(§6) The read-out was performed with PerkinElmer Enspire Multimode Plate Reader (method for AlphaLISA 384-well low volume, Filterset: λexc=680 nm, λem=615 nm).
(§7) The results were analyzed as follows: • 1) an average of luminescence for background signal was calculated and used as a negative control; • 2) an average of the maximum measured luminescence for reference compound (Table 3) was calculated and used as an internal positive control; • 3) raw luminescence values were normalized against positive and negative controls; • 4) Normalized responses to reference molecular glue were determined.

[2] = target: [CK1α]-[compound]-[CRBN/DDB1] ternary complex (Homo sapiens, UniProt P48729+Q96SW2); test: AlphaLISA assay for off-target recruitment detection, CK1α; type: binding; settings: 1 μM compound; normalized to FPFT-2216; read-out: Normalized ternary complex response, CK1α
Protocol: as §1, §2, §3, §4, §5, §6, §7

[3] = target: T2, [GSPT1]-[compound of formula (I)]-[CRBN/DDB1] complex (Homo sapiens, UniProt P15170+Q96SW2); test: AlphaLISA ternary complex formation assay (GSPT1); type: binding; settings: 0.5 h; 1 μM compound; normalized to reference compound CC-885; read-out: Normalized AlphaLISA ternary complex average signal at 1 μM molecule
Protocol: The effect of the molecular glue compounds of the invention on the formation of a ternary complex composed of [GSPT1]-[compound of formula (I)]-[CRBN/DDB1] was investigated with two methods: AlphaLISA dose response assay or HTRF ternary complex assay.
Two types of protein solution were prepared: • 200 nM biotinylated GSPT1 (Table 3), 40 μg/ml AlphaScreen Streptavidin-coated Donor Beads in HBS (10 mM HEPES, 150 mM NaCL, pH 7.4) buffer with 0.1% Tween-20 and 1 mM DTT, • 200 nM 6×His-CRBN/DDB1, 40 μg/ml AlphaLISA Anti-6×His Acceptor beads in HBS buffer with 0.1% Tween-20 and 1 mM DTT.
as §3, §4, §5, §6
as §7, with “2)” for “2) an”, “(structure shown in Table 3 below)” for “(Table 3)”, “positive control” for “reference molecular glue”

[4] = target: T2, [GSPT1]-[compound of formula (I)]-[CRBN/DDB1] complex; test: HTRF ternary complex assay (GSPT1); type: binding; settings: read-out: HTRF ternary complex Average pEC50 by molecule (converted)
Protocol: The effect of the molecular glue compounds of the invention on the formation of a ternary complex composed of [GSPT1]-[compound of formula (I)]-[CRBN/DDB1] was investigated.
Mix solution of proteins and reagents was prepared: • 48 nM GSPT1, 52.8 nM 6×His-CRBN/DDB1, 3 nM of Streptavidin-Eu cryptate ([…]) and 6.67 nM of Anti-6×his-d2 ([…]) was prepared in PPI Europium detection buffer (purchased from Cisbio) with 1 mM DTT.
The tested compounds in dose-response were dispensed onto a white 384-well low volume plate (Greiner, 784075). DMSO was backfilled to all wells, resulting in a final DMSO content of 0.5%. Wells containing only DMSO served as background.
The plate was sealed with transparent film and shaken using a VibroTurbulator for 60 sec at level 3.
The plate was then spun down shortly (10 sec, 1000 rcf) and incubated at 25° C. for 180 min.
The read-out was performed with plate reader (Pherastar, BMG Labtech) in time resolved fluorescence mode. Filter settings: TR 337 665 620.
The results were analyzed as follows: • 1) an average of fluorescence for background signal was calculated and used as a negative control; • 2) raw fluorescence values for tested compounds were normalized against negative controls; • 3) saturation curve was fitted to specific binding with Hill slope model; • 4) EC50 and pEC50 values were determined.

[5] = target: CRBN/DDB1 protein complex (Homo sapiens, UniProt Q96SW2); test: CRBN displacement TR-FRET assay; settings: Thalidomide-Red tracer, 6×His-CRBN/DDB1; read-out: CRBN binding Ki
Protocol: CRBN/DDB1 protein complex was mixed with Thalidomide-Red and a compound to be tested (the “test compound”). The test solution contained PPI Europium detection buffer, 1 mM DTT, 6.8 nM Thalidomide-Red (the tracer), 5 nM 6×His-CRBN/DDB1 protein, 0.5 nM Anti-6× His-Eu cryptate, 1% DMSO. The test solution was added to a 384-well assay plate.
The plate was spun-down (1 min, 1000 rpm, 22° C.) and then shaken using a VibroTurbulator for 30 sec at room temperature (20-25° C.), with the frequency set to level 10. The assay plate with protein and the tracer was incubated for 180 min at room temperature (20-25° C.) prior to read-out with a plate reader. The read-out was performed with plate reader (Pherastar, BMG Labtech) in time resolved fluorescence mode. Filter settings: TR 337 665 620.
The CRBN displacement TR-FRET experiment was carried out with various concentrations of the test compounds in order to measure Ki values.
The Ki values of competitive inhibitors were calculated using the equation based on the IC50 values of relationship between compound concentration and measured […], the Kd value of the Thalidomide-Red and CRBN/DDB1 complex, and the concentrations of the protein and the tracer in the displacement assay (as described by Cheng and Prusoff, Biochem Pharmacol 1973; 22:3099-3108).

[6] = target: T3, [IKZF1 ZF2]-[compound]-[CRBN/DDB1] ternary complex (Homo sapiens, UniProt Q13422+Q96SW2); test: AlphaLISA assay for off-target recruitment detection, IKZF1 ZF2; type: binding; settings: 1 μM compound; normalized to Lenalidomide; read-out: Normalized ternary complex response, IKZF1 ZF2
T3 construct: IKZF1 ZF2
Protocol: as §1, §2, §3, §4, §5, §6, §7

[7] = target: T4, [IKZF2 ZF2]-[compound]-[CRBN/DDB1] ternary complex (Homo sapiens, UniProt Q96SW2+Q9UKS7); test: AlphaLISA assay for off-target recruitment detection, IKZF2 ZF2; type: binding; settings: 1 μM compound; normalized to Helios modulator; read-out: Normalized ternary complex response, IKZF2 ZF2
T4 construct: IKZF2 ZF2
Protocol: as §1, §2, §3, §4, §5, §6, §7

[8] = Chemical stability in MV-4-11 medium; settings: 37° C., concentration 10 μM
Protocol: Next, 500 μL of each solution was transferred to the 96-deep-well plate. Three replicates for each compound were performed. Plate was afterwards incubated at 37° C. with shaking (220 rpm). 50 μL of sample were withdrawn for the each timepoint (0, 1, 3, 6, 24, 48, 72, and 168 hours) and immediately mixed with 50 μL of acetonitrile. Next, samples were centrifuged at 3900 rpm, 10° C. for 20 minutes. 40 μL of supernatant was diluted with 120 μL of acetonitrile containing internal standard (IS) (10 μM), mixed, and analyzed by LC-MS/MS.
Thermo Fisher Scientific Altis+ coupled with a Vanquish system were used for UHPLC-MS/MS analysis. Analytes were separated on a Kinetex XB-C18 2.6 μm, 50×2.1 mm column, using gradient of water with 0.1% (v/v) formic acid (solvent A) and acetonitrile with 0.1% (v/v) formic acid (solvent B): 0.0 min 5% B, 0.5 min 5% B, 1.0 min 70% B, 3.0 min 95% B, 3.5 min 95% B, 3.7 min 5% B, 5 min 5% B. The mobile phase flow rate was set to 0.3 mL/min and the column was kept in 40° C. 1 μL of samples were injected. The MS/MS analysis was performed using SRM mode in positive ionization. Source parameters were set as follow: Ion Source Type H-ESI, Spray Voltage 3800 V, Sheath Gas 50 Arb, Aux Gas 10 Arb, Sweep Gas 1 Arb, Ion Transfer Tube Temp 325° C., Vaporizer Temp 350° C., Collision Gas Pressure 1.5 mTorr, Q1/Q3 Resolution (FWHM) 0.7. Three transitions were monitored for each analyte and for the internal standard:
Quantitation was based on the peak area ratio between the test compound and IS. The amount of compound remaining in the sample was calculated as follow:
The slope of logarithmic curve of percent remaining versus time has been used for calculation of half-life (t_half). First, the elimination constant (k) was calculated using the equation:
Next, half-life (t_half) was calculated using equation:

Hep3B, Kelly, KG-1 = test: Growth inhibition of cancer cell lines (summary statement); type: cell-based; settings: hepatocellular carcinoma (Hep3B), neuroblastoma (Kelly), leukemia (KG-1)

T2 sequence (P15170 whole entry): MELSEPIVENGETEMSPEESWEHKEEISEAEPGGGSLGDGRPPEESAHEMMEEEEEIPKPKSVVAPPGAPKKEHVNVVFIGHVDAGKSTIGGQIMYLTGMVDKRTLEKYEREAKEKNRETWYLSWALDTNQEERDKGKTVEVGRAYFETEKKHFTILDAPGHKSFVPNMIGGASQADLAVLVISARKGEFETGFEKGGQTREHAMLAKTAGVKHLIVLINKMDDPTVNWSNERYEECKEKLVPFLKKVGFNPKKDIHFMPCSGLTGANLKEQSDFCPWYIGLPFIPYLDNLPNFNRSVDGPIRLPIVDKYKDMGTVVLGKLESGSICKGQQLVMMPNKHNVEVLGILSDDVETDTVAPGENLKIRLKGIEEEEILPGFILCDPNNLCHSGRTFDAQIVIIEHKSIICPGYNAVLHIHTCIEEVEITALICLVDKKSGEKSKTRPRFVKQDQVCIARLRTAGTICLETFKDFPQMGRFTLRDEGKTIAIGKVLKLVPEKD
T2 sequence (Q96SW2 whole entry): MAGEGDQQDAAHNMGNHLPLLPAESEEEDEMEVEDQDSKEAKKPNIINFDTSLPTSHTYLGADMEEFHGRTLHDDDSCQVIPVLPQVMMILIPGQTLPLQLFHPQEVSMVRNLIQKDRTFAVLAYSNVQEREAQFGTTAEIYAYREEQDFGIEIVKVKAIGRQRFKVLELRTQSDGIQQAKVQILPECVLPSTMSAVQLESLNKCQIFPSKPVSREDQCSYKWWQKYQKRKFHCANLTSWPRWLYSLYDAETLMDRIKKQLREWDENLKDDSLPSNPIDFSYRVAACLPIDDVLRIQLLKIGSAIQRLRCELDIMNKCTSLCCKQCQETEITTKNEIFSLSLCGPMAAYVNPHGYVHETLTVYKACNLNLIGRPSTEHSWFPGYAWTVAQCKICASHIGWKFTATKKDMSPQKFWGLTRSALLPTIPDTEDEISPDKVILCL
T2 sequence (Q16531 whole entry partner): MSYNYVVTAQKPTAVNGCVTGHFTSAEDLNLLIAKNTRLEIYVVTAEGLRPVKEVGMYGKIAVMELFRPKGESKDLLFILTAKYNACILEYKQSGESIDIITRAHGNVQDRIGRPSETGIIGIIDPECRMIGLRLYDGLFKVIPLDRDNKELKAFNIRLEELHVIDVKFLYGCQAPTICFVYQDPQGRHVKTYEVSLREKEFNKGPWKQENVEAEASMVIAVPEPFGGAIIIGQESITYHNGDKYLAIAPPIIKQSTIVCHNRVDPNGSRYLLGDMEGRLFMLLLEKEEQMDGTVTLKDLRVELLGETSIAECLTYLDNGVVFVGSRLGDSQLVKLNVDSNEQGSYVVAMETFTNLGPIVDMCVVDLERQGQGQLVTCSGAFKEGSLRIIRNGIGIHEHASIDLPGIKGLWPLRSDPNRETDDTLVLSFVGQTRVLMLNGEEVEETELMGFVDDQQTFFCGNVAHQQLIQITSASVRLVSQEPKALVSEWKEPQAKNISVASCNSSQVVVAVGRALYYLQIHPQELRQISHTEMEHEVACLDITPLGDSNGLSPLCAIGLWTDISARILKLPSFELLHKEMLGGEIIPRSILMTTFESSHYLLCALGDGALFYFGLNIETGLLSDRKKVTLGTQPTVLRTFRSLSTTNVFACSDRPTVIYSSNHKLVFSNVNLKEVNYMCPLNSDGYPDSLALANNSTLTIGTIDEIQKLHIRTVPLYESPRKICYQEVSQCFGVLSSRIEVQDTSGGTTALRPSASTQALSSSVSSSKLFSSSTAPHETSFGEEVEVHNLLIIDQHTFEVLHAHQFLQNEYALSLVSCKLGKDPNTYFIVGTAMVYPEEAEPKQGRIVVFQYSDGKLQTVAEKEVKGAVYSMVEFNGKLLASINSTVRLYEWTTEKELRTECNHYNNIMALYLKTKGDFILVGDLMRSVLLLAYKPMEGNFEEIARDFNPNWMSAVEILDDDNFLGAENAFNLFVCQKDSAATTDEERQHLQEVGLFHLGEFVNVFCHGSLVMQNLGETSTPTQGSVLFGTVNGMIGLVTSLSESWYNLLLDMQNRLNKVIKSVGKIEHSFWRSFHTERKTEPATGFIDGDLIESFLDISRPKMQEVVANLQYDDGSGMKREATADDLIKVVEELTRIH
T3 sequence (Q13422 145-167 limits assumed): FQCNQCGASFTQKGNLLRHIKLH
T3 sequence (Q96SW2 whole entry): as the sequence (Q96SW2 whole entry) above
T3 sequence (Q16531 whole entry partner): as the sequence (Q16531 whole entry partner) above
CRBN/DDB1 protein complex, sequence (Q96SW2 whole entry, species assumed): as the sequence (Q96SW2 whole entry) above
CRBN/DDB1 protein complex, sequence (Q16531 whole entry partner, species assumed): as the sequence (Q16531 whole entry partner) above
[CK1α]-[compound]-[CRBN/DDB1] ternary complex, sequence (P48729 whole entry): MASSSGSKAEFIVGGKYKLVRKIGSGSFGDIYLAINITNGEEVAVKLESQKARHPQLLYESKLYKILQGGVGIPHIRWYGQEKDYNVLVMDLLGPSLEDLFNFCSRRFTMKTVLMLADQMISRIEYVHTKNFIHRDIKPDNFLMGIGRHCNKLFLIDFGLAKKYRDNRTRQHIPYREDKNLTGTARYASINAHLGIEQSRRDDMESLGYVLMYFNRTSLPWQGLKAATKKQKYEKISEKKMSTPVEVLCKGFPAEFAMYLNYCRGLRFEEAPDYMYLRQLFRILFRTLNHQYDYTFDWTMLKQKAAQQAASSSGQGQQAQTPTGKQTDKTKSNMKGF
[CK1α]-[compound]-[CRBN/DDB1] ternary complex, sequence (Q96SW2 whole entry): as the sequence (Q96SW2 whole entry) above
[CK1α]-[compound]-[CRBN/DDB1] ternary complex, sequence (Q16531 whole entry partner): as the sequence (Q16531 whole entry partner) above
T4 sequence (Q9UKS7 140-162 limits assumed): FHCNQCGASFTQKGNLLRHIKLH
T4 sequence (Q96SW2 whole entry): as the sequence (Q96SW2 whole entry) above
T4 sequence (Q16531 whole entry partner): as the sequence (Q16531 whole entry partner) above
T1 sequence (Q9UJQ4 410-432 limits assumed): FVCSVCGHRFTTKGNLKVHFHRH
T1 sequence (Q96SW2 whole entry): as the sequence (Q96SW2 whole entry) above
T1 sequence (Q16531 whole entry partner): as the sequence (Q16531 whole entry partner) above

| Structure (SMILES) | activation at 1 µM [1] | activation at 1 µM [2] | activation at 1 µM [3] | EC50 [4] | pKi [5] | activation at 1 µM [6] | activation at 1 µM [7] | % remaining at 24 hrs [8] | t_half [hours] [8] | inhibition of growth of cancer types (Hep3B, Kelly, KG-1) |
| --- | --- | --- | --- | --- | --- | --- | --- | --- | --- | --- |
| Cc1nc2ccc(COC(=O)NC3CCCCC3)cc2cc1N1CCC(=O)NC1=O [Compound 60, (3-(2,4-dioxotetrahydropyrimidin-1(2H)-yl)-2-methylquinolin-6-yl)methyl cyclohexylcarbamate] | ≥ 50% | < 10% | 10 to 50% | 316 to 3160 nM | 6.00 to 6.30 | 10 to 25% | < 10% | – | – | – |
| Cc1ccc(NC(=O)OCc2cc3nc(C)c(C4CCC(=O)NC4=O)cc3cc2C)cc1Cl (centres unmarked) [Compound 68, (3-(2,6-dioxopiperidin-3-yl)-2,6-dimethylquinolin-7-yl)methyl (3-chloro-4-methylphenyl)carbamate] | < 10% | < 10% | < 10% | > 3160 nM | < 6.00 | < 10% | < 10% | – | – | – |
| Cc1nc2cccc(N)c2c(=O)n1C1CCC(=O)NC1=O (centres unmarked) [avadomide] | – | – | – | – | – | – | – | d (5%≤d<10%) | C (5 hrs≤C<10 hrs) | – |
| O=C1CCC(N2Cc3cc(CNC(=O)C(F)(F)c4ccc(Cl)cc4)ccc3C2=O)C(=O)N1 (centres unmarked) [eragidomide] | – | – | – | – | – | – | – | – | D (D<5 hrs) | – |
| Nc1cccc2c1CN(C1CCC(=O)NC1=O)C2=O (centres unmarked) [lenalidomide] | – | – | – | – | – | – | – | e (e<5%) | D (D<5 hrs) | inactive |
| Nc1cccc2c1C(=O)N(C1CCC(=O)NC1=O)C2=O (centres unmarked) [pomalidomide] | – | – | – | – | – | – | – | e (e<5%) | D (D<5 hrs) | inactive |
